Tests used:
[1] = human gut metagenome, 24 h, 2 µM
[2] = (§1) The drug is tested on Z-029 corresponding to rat gut metagenome with ENA study accession number: PRJEB37062 and ENA sample accession number: ERS12561828 for biotransformation under anaerobic condition. The drug concentrations were measured over 9 timepoints collected between 0 and 24 hours of incubation by liquid-chromatography-coupled mass spectrometry (LC–MS); conditions: 2 µM
[3] = human gut metagenome, 24 h, 2 µM; remark: listed apart in the source
[4] = as §1, with “Z-023” for “Z-029”, “to” for “to rat gut”, “ERS12561822” for “ERS12561828”; conditions: 2 µM
[5] = human gut metagenome, 24 h, 2 µM; remark: listed apart in the source
[6] = as §1, with “on Z-017” for “on Z-029”, “to mouse” for “to rat”, “number: ERS12561816” for “number: ERS12561828”; conditions: 2 µM
[7] = human gut metagenome, 24 h, 2 µM; remark: listed apart in the source
[8] = human gut metagenome, 24 h, 2 µM; remark: listed apart in the source
[9] = as §1, with “on WLS-086” for “on Z-029”, “to human” for “to rat”, “number: ERS12561752” for “number: ERS12561828”; conditions: 2 µM
[10] = as §1, with “on Z-020” for “on Z-029”, “to rabbit” for “to rat”, “number: ERS12561819” for “number: ERS12561828”; conditions: 2 µM
[11] = as §1, with “Z-026” for “Z-029”, “to” for “to rat gut”, “ERS12561825” for “ERS12561828”; conditions: 2 µM
[12] = as §1, with “Z-014” for “Z-029”, “ERS12561814” for “ERS12561828”; conditions: 2 µM
[13] = as §1, with “on Z-022” for “on Z-029”, “to mouse” for “to rat”, “number: ERS12561821” for “number: ERS12561828”; conditions: 2 µM
[14] = as §1, with “on WLS-082” for “on Z-029”, “to human” for “to rat”, “number: ERS12561751” for “number: ERS12561828”; conditions: 2 µM
[15] = as §1, with “on WLS-170” for “on Z-029”, “to human” for “to rat”, “number: ERS12561762” for “number: ERS12561828”; conditions: 2 µM
[16] = human gut metagenome, 24 h, 2 µM; remark: listed apart in the source
[17] = as §1, with “on WLS-010” for “on Z-029”, “to human” for “to rat”, “number: ERS12561743” for “number: ERS12561828”; conditions: 2 µM
[18] = human gut metagenome, 24 h, 2 µM; remark: listed apart in the source
[19] = as §1, with “Z-012” for “Z-029”, “to” for “to rat gut”, “ERS12561812” for “ERS12561828”; conditions: 2 µM
[20] = human gut metagenome, 24 h, 2 µM; remark: listed apart in the source
Further: call rule not given here.

CCN(C(C)=O)c1cccc(-c2ccnc3c(C#N)cnn23)c1 [ZALEPLON]
Bacterial Biotransformation [1]: Compound metabolized
Bacterial Biotransformation [2]: Compound NOT metabolized
Bacterial Biotransformation [3]: Compound metabolized
Bacterial Biotransformation [4]: Compound metabolized
Bacterial Biotransformation [5]: Compound metabolized
Bacterial Biotransformation [6]: Compound NOT metabolized
Bacterial Biotransformation [7]: Compound metabolized
Bacterial Biotransformation [8]: Compound metabolized
Bacterial Biotransformation [9]: Compound metabolized
Bacterial Biotransformation [10]: Compound metabolized
Bacterial Biotransformation [11]: Compound NOT metabolized
Bacterial Biotransformation [12]: Compound NOT metabolized
Bacterial Biotransformation [13]: Compound NOT metabolized
Bacterial Biotransformation [14]: Compound metabolized
Bacterial Biotransformation [15]: Compound metabolized
Bacterial Biotransformation [16]: Compound metabolized
Bacterial Biotransformation [17]: Compound metabolized
Bacterial Biotransformation [18]: Compound metabolized
Bacterial Biotransformation [19]: Compound metabolized
Bacterial Biotransformation [20]: Compound metabolized

From ChEMBL document CHEMBL5724914, “Linking interpersonal differences in gut microbiota composition and drug biotransformation activity” (2024)
